# Measured values taken from patent US6290995A, “Plant drug for preventing cancer II” (priority 2000, dated 2001).
# Tests used:
# mouse epidermis = settings: in words; cited from earlier work
# [1] = tested on: advanced ovarian and breast cancer; settings: clinical trials, late 1980s and early 1990s; cited from earlier work
# n-ras RNA = test: Inhibition of oncogene n-ras RNA in ML-1 cells (northern blot); type: cell-based; settings: Homo sapiens, ML1, 10 ng/ml, P <0.01
# Method: (§1) Cells were maintained in suspension culture in RPMI 1640 medium supplemented with 7.5% heat-inactivated FBS, Cells growth and viability were assayed by hemocytometer using trypan blue dye exclusion. RNA was isolated by the CsCl gradient modification. RNA pellets were washed twice by reprecipitation in ethanol and quantitated by absorbency at 260 nM. RNA analyzed by electrophoresis of 15 μg of RNA through 1.2% agarose formaldehyde gels followed by northern blot transfer to nitrocellulose.
# (§2) Single-standard uniformly labeled DNA probes were prepared. Probe of c-myc was a 1.7 Kb cla-Eco RI restriction fragment containing the 3'exon region of human c-myc and probe of c-myb was 1.0 Kb myb-specific Bam HI fragment. Probes for n-ras contained DNA fragments using a modification of the PCR technique. Probes for myb, myc and n-ras were isolated by electrolution. The isolated fragments were labeled to high specific activity with [α^32 P]-dCTP (3000 ci/mmol). Prehybridization of the filter was performed. The hybridization mixer contained 50,000 cpm of probe. The probes were hybridized at 58° C. in 15 mM NaCl, 1.5 nM sodium citrate for 3 hours. After hybridization, they were exposed to XAR-5 film. Oncogene expression was quantitated by densitometer scanning of the autoradiography.
# c-myc RNA = test: Inhibition of oncogene c-myc RNA in ML-1 cells (northern blot); type: cell-based; settings: Homo sapiens, ML1, 10 ng/ml, P <0.01
# Method: as §1, §2
# c-myb RNA = test: Inhibition of oncogene c-myb RNA in ML-1 cells (northern blot); type: cell-based; settings: Homo sapiens, ML1, 10 ng/ml, P <0.01
# Method: as §1, §2
SMILES,effect on [3H] thymidine incorporation in mouse epidermis (mouse epidermis),clinical activity against advanced ovarian and breast cancer [1],inhibition at 0.01 µg/mL (n-ras RNA),inhibition at 0.01 µg/mL (c-myc RNA),inhibition at 0.01 µg/mL (c-myb RNA)
"CCCCCCCCCCCCCC(=O)O[C@@H]1[C@@H](C)[C@@]2(O)[C@@H](C=C(CO)C[C@]3(O)C(=O)C(C)=C[C@@H]23)[C@@H]2C(C)(C)[C@]12OC(C)=O [TPA, tetradecanoyphorbol-13-acetate]",remarkable increase,–,–,–,–
CC(=O)O[C@H]1C(=O)[C@@]2(C)[C@H]([C@H](OC(=O)c3ccccc3)[C@]3(O)C[C@H](OC(=O)[C@H](O)[C@@H](NC(=O)c4ccccc4)c4ccccc4)C(C)=C1C3(C)C)[C@]1(OC(C)=O)CO[C@@H]1C[C@@H]2O [Taxol],–,impressive clinical activities,–,–,–
"COc1ccc2cc3[n+](cc2c1OC)CCc1cc2c(cc1-3)OCO2 [BE, Berberine]",–,–,30.2 ± 3.5%,50.5 ± 6.1%,52 ± 5.8%
"O=C(O)[C@H]1O[C@@H](Oc2cc3oc(-c4ccccc4)cc(=O)c3c(O)c2O)[C@H](O)[C@@H](O)[C@@H]1O [BA, Baicalin]",–,–,20.6 ± 3%,29.3 ± 3.4%,24.4 ± 3%
